# Tests used:
# [1] = system: several mammalian cell types; settings: energy-independent manner; Zhao et al., J. Pharmacol Exp Ther., 304:425-432, 2003; cited from earlier work
# [2] = system: Monocytes from Heart Failure Dogs; assay: Oxygen consumption rate (XF analyzer) in isolated monocytes incubated with peptide, heart failure dogs; format: cell-based, dog; settings: for MAXresp (maximal respiration) / Proton Leak / SRC (spare respiratory capacity): monocytes from heart failure dogs
# Method: (§1) Peripheral blood samples were obtained from 6 normal dogs and 6 dogs with coronary microembolizations-induced heart failure (LV ejection fraction ˜30%). Monocytes were isolated from the peripheral blood samples via sequential Ficoll and Percoll density gradients. Monocyte viability, assayed using Trypan blue exclusion, was ˜70%. An XFc/XF96 analyzer (Scahorsc Bioscience) was used to measure oxygen consumption rates (OCR) in monocytes in the presence and absence of 1 μM oligomycin, 0.5 μM FCCP, or 1 μM each rotenone and antimycin. Mitochondrial proton leak, maximal respiration (MAXresp) and spare respiratory capacity (SRC) were measured in the presence and absence of 0.1, 1.0 and 10 μM concentrations of D-Arg-2′6′Dmt-Lys-Phe-NH2. Results were expressed in pmols OCR/min/μg protein.
# [3] = system: Monocytes from Normal Dogs; assay: Oxygen consumption rate (XF analyzer) in isolated monocytes incubated with peptide, normal dogs; format: cell-based, dog; settings: for MAXresp (maximal respiration) / Proton Leak / SRC (spare respiratory capacity): monocytes from normal dogs
# Method: as §1
# [4] = heart failure dogs, 0.1, 1.0 and 10 μM
substance,measurement,setting,value
"2′,6′-Dmt-D-Arg-Phe-Lys-NH2",penetration of the plasma membrane,[1],readily penetrates the plasma membrane
D-Arg-2′6′Dmt-Lys-Phe-NH2,change in MAXresp with concentration,[2]; [4],dose-dependent increase
same,change in SRC with concentration,[2]; [4],dose-dependent increase
same,change in proton leak with concentration,[2]; [4],dose-dependent decrease
same,monocyte mitochondrial function,"[2]; heart failure dogs, after treatment with 0.1, 1.0 and 10 μM",nearly normalized/restored
same,MAXresp (maximal respiration),[2]; peptide concentration 0.1 μM,6.3 pmols OCR/min/μg protein
same,Proton Leak,[2]; peptide concentration 0.1 μM,1.55 pmols OCR/min/μg protein
same,SRC (spare respiratory capacity),[2]; peptide concentration 0.1 μM,1.95 pmols OCR/min/μg protein
same,MAXresp (maximal respiration),[2]; peptide concentration 1.0 μM,8.3 pmols OCR/min/μg protein
same,Proton Leak,[2]; peptide concentration 1.0 μM,0.94 pmols OCR/min/μg protein
same,SRC (spare respiratory capacity),[2]; peptide concentration 1.0 μM,3.64 pmols OCR/min/μg protein
same,MAXresp (maximal respiration),[2]; peptide concentration 10 μM,9.4 pmols OCR/min/μg protein
same,Proton Leak,[2]; peptide concentration 10 μM,0.77 pmols OCR/min/μg protein
same,SRC (spare respiratory capacity),[2]; peptide concentration 10 μM,4.51 pmols OCR/min/μg protein
same,MAXresp (maximal respiration),[3]; peptide concentration 0.1 μM,11.1 pmols OCR/min/μg protein
same,Proton Leak,[3]; peptide concentration 0.1 μM,0.54 pmols OCR/min/μg protein
same,SRC (spare respiratory capacity),[3]; peptide concentration 0.1 μM,6.35 pmols OCR/min/μg protein
same,MAXresp (maximal respiration),[3]; peptide concentration 1.0 μM,12.1 pmols OCR/min/μg protein
same,Proton Leak,[3]; peptide concentration 1.0 μM,0.47 pmols OCR/min/μg protein
same,SRC (spare respiratory capacity),[3]; peptide concentration 1.0 μM,7.04 pmols OCR/min/μg protein
same,MAXresp (maximal respiration),[3]; peptide concentration 10 μM,12.1 pmols OCR/min/μg protein
same,Proton Leak,[3]; peptide concentration 10 μM,0.48 pmols OCR/min/μg protein
same,SRC (spare respiratory capacity),[3]; peptide concentration 10 μM,7.04 pmols OCR/min/μg protein
same,effect on measures of monocyte mitochondrial function,"[3]; normal dogs, incubation with 0.1, 1.0 and 10 μM",no effect
